US10793580B2, “Substituted pyrazoloazepin-8-ones and their use as phosphodiesterase inhibitors” (LEO Pharma A/S, priority 2016, dated 2020)

molecular target: human PDE4D catalytic domain (Homo sapiens (Human), UniProt Q08499); experiment: PDE4 Assay (TR-FRET, FAM-cAMP cleavage); format: biochemical; details: Table 16, Examples 277-296; read-out: PDE4 IC50 range
Method in brief: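 PDE4D catalytic domain (S380-L740) incubated briefly with unlabelled cAMP plus FAM-cAMP and titrated compound. Reaction stopped with binding buffer holding metal-ion nanoparticles that bind AMP phospho groups and Tb donor, and AMP formation read by TR-FRET. IC50 versus controls, reported as ranges (nM).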

Sequence of human PDE4D catalytic domain (Q08499 380-740): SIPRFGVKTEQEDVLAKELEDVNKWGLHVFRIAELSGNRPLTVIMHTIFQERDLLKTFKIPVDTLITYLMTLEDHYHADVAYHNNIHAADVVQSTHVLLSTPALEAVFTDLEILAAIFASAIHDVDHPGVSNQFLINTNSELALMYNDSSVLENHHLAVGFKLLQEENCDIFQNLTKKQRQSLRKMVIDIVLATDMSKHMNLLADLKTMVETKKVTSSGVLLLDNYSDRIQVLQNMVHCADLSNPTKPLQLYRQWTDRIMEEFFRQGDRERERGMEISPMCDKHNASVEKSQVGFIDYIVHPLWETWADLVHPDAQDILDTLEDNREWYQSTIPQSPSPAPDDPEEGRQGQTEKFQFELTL

| Compound | IC50 [µM] |
| --- | --- |
| CCn1nc(C[C@@H](C)COC(=O)C2CCOCC2)c2c1C(=O)NCC1(CCOCC1)C2 [Example 287, [(2R)-3-(1-ethyl-8-oxo-spiro[6,7-dihydro-4H-pyrazolo[3,4-c]azepine-5,4′-tetrahydropyran]-3-yl)-2-methyl-propyl] tetrahydropyran-4-carboxylate] | < 0.1 |

same assay, conditions: Table 17, Examples 297-316; read-out: PDE4 IC50 range

| Compound | IC50 [µM] |
| --- | --- |
| CCn1nc(CC(C)(C)COC(=O)C2CCN(C(C)=O)CC2)c2c1C(=O)NCC1(CCOCC1)C2 [Example 314, [3-(1-ethyl-8-oxo-spiro[6,7-dihydro-4H-pyrazolo[3,4-c]azepine-5,4′-tetrahydropyran]-3-yl)-2,2-dimethyl-propyl] 1-acetylpiperidine-4-carboxylate] | < 0.1 |
| CCn1nc(CC(C)(C)COC(=O)c2cnc(C)s2)c2c1C(=O)NCC1(CCOCC1)C2 [Example 311, [3-(1-ethyl-8-oxo-spiro[6,7-dihydro-4H-pyrazolo[3,4-c]azepine-5,4′-tetrahydropyran]-3-yl)-2,2-dimethyl-propyl] 2-methylthiazole-5-carboxylate] | < 0.1 |

same assay, conditions: human PDE4D catalytic domain (UniProt Q08499 [S380-L740]); 50% inhibition of substrate cleavage; read-out: PDE4 IC50 range

| Compound | IC50 [µM] |
| --- | --- |
| CCn1nc(CC(C)(C)COC(=O)c2cccc(S(=O)(=O)N3CCCC3)c2)c2c1C(=O)NCC1(CCOCC1)C2 [Example 210, [3-(1-ethyl-8-oxo-spiro[6,7-dihydro-4H-pyrazolo[3,4-c]azepine-5,4′-tetrahydropyran]-3-yl)-2,2-dimethyl-propyl] 3-pyrrolidin-1-ylsulfonylbenzoate] | < 0.1 |
| CCn1nc(C[C@@H](C)COC(=O)c2ccccc2OC)c2c1C(=O)NCC1(CCOCC1)C2 [Example 151, [(2R)-3-(1-ethyl-8-oxo-spiro[6,7-dihydro-4H-pyrazolo[3,4-c]azepine-5,4′-tetrahydropyran]-3-yl)-2-methyl-propyl] 2-methoxybenzoate] | < 0.1 |
| CCn1nc(CCCOC(=O)c2cnc(C)s2)c2c1C(=O)NCC1(CCOCC1)C2 [Example 255, 3-(1-ethyl-8-oxo-spiro[6,7-dihydro-4H-pyrazolo[3,4-c]azepine-5,4′-tetrahydropyran]-3-yl)propyl 2-methylthiazole-5-carboxylate] | < 0.1 |
| CCn1nc(CCCOC(=O)c2cccc(C(C)=O)c2)c2c1C(=O)NCC1(CCOCC1)C2 [Example 28, 3-(1-ethyl-8-oxo-spiro[6,7-dihydro-4H-pyrazolo[3,4-c]azepine-5,4′-tetrahydropyran]-3-yl)propyl 3-acetylbenzoate] | < 0.1 |
| CCn1nc(CC(C)(C)COC(=O)c2cccc(C(C)=O)c2)c2c1C(=O)NCC1(CCOCC1)C2 [Example 201, [3-(1-ethyl-8-oxo-spiro[6,7-dihydro-4H-pyrazolo[3,4-c]azepine-5,4′-tetrahydropyran]-3-yl)-2,2-dimethyl-propyl] 3-acetylbenzoate] | < 0.1 |
| CCn1nc(CCCOC(=O)c2coc(C)n2)c2c1C(=O)NCC1(CCOCC1)C2 [Example 240, 3-(1-ethyl-8-oxo-spiro[6,7-dihydro-4H-pyrazolo[3,4-c]azepine-5,4′-tetrahydropyran]-3-yl)propyl 2-methyloxazole-4-carboxylate] | < 0.1 |
| CCn1nc(CCCOC(=O)c2csc(C)n2)c2c1C(=O)NCC1(CCOCC1)C2 [Example 254, 3-(1-ethyl-8-oxo-spiro[6,7-dihydro-4H-pyrazolo[3,4-c]azepine-5,4′-tetrahydropyran]-3-yl)propyl 2-methylthiazole-4-carboxylate] | < 0.1 |
| CCn1nc(CCCCOC(=O)c2ccc(S(=O)(=O)N(C)C)cc2)c2c1C(=O)NCC1(CCOCC1)C2 [Example 132, 4-(1-ethyl-8-oxo-spiro[6,7-dihydro-4H-pyrazolo[3,4-c]azepine-5,4′-tetrahydropyran]-3-yl)butyl 4-(dimethyl-sulfamoyl)benzoate] | < 0.1 |
| CCn1nc(CCCOC(=O)c2cccc(C(=O)N(C)C)c2)c2c1C(=O)NCC1(CCOCC1)C2 [Example 115, 3-(1-ethyl-8-oxo-spiro[6,7-dihydro-4H-pyrazolo[3,4-c]azepine-5,4′-tetrahydropyran]-3-yl)propyl 3-(dimethyl-carbamoyl)benzoate] | < 0.1 |
| CCn1nc(CCCOC(=O)c2cccc(Cl)c2F)c2c1C(=O)NCC1(CCOCC1)C2 [Example 50, 3-(1-ethyl-8-oxo-spiro[6,7-dihydro-4H-pyrazolo[3,4-c]azepine-5,4′-tetrahydropyran]-3-yl)propyl 3-chloro-2-fluoro-benzoate] | < 0.1 |
| CCc1ccc(C(=O)OC[C@H](C)Cc2nn(CC)c3c2CC2(CCOCC2)CNC3=O)cc1 [Example 148, [(2R)-3-(1-ethyl-8-oxo-spiro[6,7-dihydro-4H-pyrazolo[3,4-c]azepine-5,4′-tetrahydropyran]-3-yl)-2-methyl-propyl] 4-ethylbenzoate] | < 0.1 |
| CCn1nc(C[C@@H](C)COC(=O)c2ccc(S(=O)(=O)N3CCOCC3)cc2)c2c1C(=O)NCC1(CCOCC1)C2 [Example 165, [(2R)-3-(1-ethyl-8-oxo-spiro[6,7-dihydro-4H-pyrazolo[3,4-c]azepine-5,4′-tetrahydropyran]-3-yl)-2-methyl-propyl] 4-morpholinosulfonylbenzoate] | < 0.1 |
| CCn1nc(CC(C)(C)COC(=O)c2cccc(C(=O)N3CCN(C)CC3)c2)c2c1C(=O)NCC1(CCOCC1)C2 [Example 233, [3-(1-ethyl-8-oxo-spiro[6,7-dihydro-4H-pyrazolo[3,4-c]azepine-5,4′-tetrahydro-pyran]-3-yl)-2,2-dimethyl-propyl] 3-(4-methyl-piperazine-1-carbonyl)-benzoate] | < 0.1 |
| CCn1nc(C[C@@H](C)COC(=O)[C@H]2C[C@@H](O)C2)c2c1C(=O)NCC1(CCOCC1)C2 [Example 138, [(2R)-3-(1-ethyl-8-oxo-spiro[6,7-dihydro-4H-pyrazolo[3,4-c]azepine-5,4′-tetrahydropyran]-3-yl)-2-methyl-propyl] 3-hydroxy-cyclobutanecarboxylate] | < 0.1 |
| CCn1nc(CCCOC(=O)c2ccc(C(F)(F)F)c(C(F)(F)F)c2)c2c1C(=O)NCC1(CCOCC1)C2 [Example 98, 3-(1-ethyl-8-oxo-spiro[6,7-dihydro-4H-pyrazolo[3,4-c]azepine-5,4′-tetrahydropyran]-3-yl)propyl 3,4-bis(trifluoromethyl)benzoate] | < 0.1 |
| CCn1nc(CCCOC(=O)C2CCN(C(=O)N(C)C)CC2)c2c1C(=O)NCC1(CCOCC1)C2 [Example 264, 3-(1-ethyl-8-oxo-spiro[6,7-dihydro-4H-pyrazolo[3,4-c]azepine-5,4′-tetrahydro-pyran]-3-yl)propyl 1-(dimethyl-carbamoyl)piperidine-4-carboxylate] | < 0.1 |
| CCn1nc(CC(C)(C)COC(=O)c2ccc(C(C)=O)cc2)c2c1C(=O)NCC1(CCOCC1)C2 [Example 200, [3-(1-ethyl-8-oxo-spiro[6,7-dihydro-4H-pyrazolo[3,4-c]azepine-5,4′-tetrahydropyran]-3-yl)-2,2-dimethyl-propyl] 4-acetylbenzoate] | < 0.1 |
| CCn1nc(CCCOC(=O)c2cccc(C(F)(F)F)c2Cl)c2c1C(=O)NCC1(CCOCC1)C2 [Example 85, 3-(1-ethyl-8-oxo-spiro[6,7-dihydro-4H-pyrazolo[3,4-c]azepine-5,4′-tetrahydropyran]-3-yl)propyl 2-chloro-3-(trifluoromethyl)benzoate] | < 0.1 |
| CCn1nc(CCCOC(=O)c2ccc(F)c(Cl)c2)c2c1C(=O)NCC1(CCOCC1)C2 [Example 54, 3-(1-ethyl-8-oxo-spiro[6,7-dihydro-4H-pyrazolo[3,4-c]azepine-5,4′-tetrahydropyran]-3-yl)propyl 3-chloro-4-fluoro-benzoate] | < 0.1 |
